Assay results: article PMC6198068, “Discovery of a Novel Nav1.7 Inhibitor From Cyriopagopus albostriatus Venom With Potent Analgesic Efficacy” (Frontiers in Pharmacology, 2018)
Like-named read-outs stand apart in the source and are kept apart here. Where a SMILES comes first, the peptide text is derived from it. Bridges are numbered along the chain shown (N, C = ends).

Columns and labels:
Nav1.7 [1] = biological target: T1, Nav1.7 (Homo sapiens, UniProt Q15858); assay: I–V relationships and voltage-dependent activation of Nav1.7; assay type: cell-based; details: 0.2 μM, n = 10
T1 construct: expressed in transfected cells; host or cells: HEK293T
Excerpt: (§1) The cDNA genes encoding rat Nav1.4 and human Nav1.7 were subcloned into vectors pRGB4 and pcDNA3.1-mod, respectively. Mutations of rNav1.4 (N655D, Q657E, and N655D/Q657E) and hNav1.7 (D816N, E818Q, and D816N/E818Q) were constructed using the Gene Tailor Site-Directed Mutagenesis system (Invitrogen, Carlsbad, CA, United States), according to the manufacturer’s instructions. Nav1.2–Nav1.7 and mutant plasmids together with eGFP were transiently transfected into HEK293T cells while Nav1.8 together with eGFP was transiently transfected into ND7/23 cells by Lipofectamine 2000 (Invitrogen, Carlsbad, CA, United States). Additionally, plasmids β1- and β2-eGFP encoding the human β1 and β2 subunits, respectively, were co-transfected with those encoding WT Nav1.7 and Nav1.7 mutations in HEK293T cells. […] Cells with green fluorescent protein fluorescence were selected for whole-cell patch-clamp recordings 24 h after transfection.
(§2) Whole-cell patch-clamp recordings were performed at room temperature (20–25°C) using an EPC 10 USB Patch Clamp Amplifier (HEKA, Elektronik, Lambrecht, Germany). […] Data was analyzed by software Igo Pro 6.10A (WaveMetrics, Lake Oswego, OR, United States), SigmaPlot 10.0 (Sigma-Aldrich, St. Louis, MO, United States), OriginPro 8 (OriginLab Corp., Northampton, MA, United States), and GraphPad Prism 5 (GraphPad Software, San Diego, CA, United States). […]

Nav1.7 [2] = biological target: T1, Nav1.7; assay: Use/frequency-dependent inhibition of Nav1.7; assay type: cell-based; details: n = 4-5; for IC50: read-out: IC50 Nav1.7, repetitive pulses
Excerpt: as §1, with “cells. Human Nav1.9 was transfected into ND7/23 cells according to a previous report ([Zhou et al., 2017]).” for “cells.”
as §2
Fast inactivation time constants were calculated by fitting current decay traces with a single exponential function using the I–V protocol described above. Recovery from fast-inactivation (repriming) was assessed by using a two-pulse protocol consisting of a depolarizing pulse to −10 mV for 50 ms to inactivate channels, followed by a step to −100 mV of variable duration (1 to 1024 ms) to promote recovery, and 50 ms test pulse to −10 mV to assess availability of channels. […]

Nav1.7/E818Q = assay: Whole-cell patch-clamp, Nav1.7/E818Q in HEK293T cells; assay type: cell-based, human; details: 1 μM, n = 5 cells
Excerpt: as §1, §2

T1 sequence (O60939 30-215): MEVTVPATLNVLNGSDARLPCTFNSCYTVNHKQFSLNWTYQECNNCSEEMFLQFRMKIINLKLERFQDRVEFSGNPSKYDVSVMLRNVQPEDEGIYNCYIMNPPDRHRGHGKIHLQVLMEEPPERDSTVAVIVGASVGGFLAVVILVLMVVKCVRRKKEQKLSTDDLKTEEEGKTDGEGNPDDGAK
T1 sequence (Q15858 other isoform, or with tags, fused parts or gaps): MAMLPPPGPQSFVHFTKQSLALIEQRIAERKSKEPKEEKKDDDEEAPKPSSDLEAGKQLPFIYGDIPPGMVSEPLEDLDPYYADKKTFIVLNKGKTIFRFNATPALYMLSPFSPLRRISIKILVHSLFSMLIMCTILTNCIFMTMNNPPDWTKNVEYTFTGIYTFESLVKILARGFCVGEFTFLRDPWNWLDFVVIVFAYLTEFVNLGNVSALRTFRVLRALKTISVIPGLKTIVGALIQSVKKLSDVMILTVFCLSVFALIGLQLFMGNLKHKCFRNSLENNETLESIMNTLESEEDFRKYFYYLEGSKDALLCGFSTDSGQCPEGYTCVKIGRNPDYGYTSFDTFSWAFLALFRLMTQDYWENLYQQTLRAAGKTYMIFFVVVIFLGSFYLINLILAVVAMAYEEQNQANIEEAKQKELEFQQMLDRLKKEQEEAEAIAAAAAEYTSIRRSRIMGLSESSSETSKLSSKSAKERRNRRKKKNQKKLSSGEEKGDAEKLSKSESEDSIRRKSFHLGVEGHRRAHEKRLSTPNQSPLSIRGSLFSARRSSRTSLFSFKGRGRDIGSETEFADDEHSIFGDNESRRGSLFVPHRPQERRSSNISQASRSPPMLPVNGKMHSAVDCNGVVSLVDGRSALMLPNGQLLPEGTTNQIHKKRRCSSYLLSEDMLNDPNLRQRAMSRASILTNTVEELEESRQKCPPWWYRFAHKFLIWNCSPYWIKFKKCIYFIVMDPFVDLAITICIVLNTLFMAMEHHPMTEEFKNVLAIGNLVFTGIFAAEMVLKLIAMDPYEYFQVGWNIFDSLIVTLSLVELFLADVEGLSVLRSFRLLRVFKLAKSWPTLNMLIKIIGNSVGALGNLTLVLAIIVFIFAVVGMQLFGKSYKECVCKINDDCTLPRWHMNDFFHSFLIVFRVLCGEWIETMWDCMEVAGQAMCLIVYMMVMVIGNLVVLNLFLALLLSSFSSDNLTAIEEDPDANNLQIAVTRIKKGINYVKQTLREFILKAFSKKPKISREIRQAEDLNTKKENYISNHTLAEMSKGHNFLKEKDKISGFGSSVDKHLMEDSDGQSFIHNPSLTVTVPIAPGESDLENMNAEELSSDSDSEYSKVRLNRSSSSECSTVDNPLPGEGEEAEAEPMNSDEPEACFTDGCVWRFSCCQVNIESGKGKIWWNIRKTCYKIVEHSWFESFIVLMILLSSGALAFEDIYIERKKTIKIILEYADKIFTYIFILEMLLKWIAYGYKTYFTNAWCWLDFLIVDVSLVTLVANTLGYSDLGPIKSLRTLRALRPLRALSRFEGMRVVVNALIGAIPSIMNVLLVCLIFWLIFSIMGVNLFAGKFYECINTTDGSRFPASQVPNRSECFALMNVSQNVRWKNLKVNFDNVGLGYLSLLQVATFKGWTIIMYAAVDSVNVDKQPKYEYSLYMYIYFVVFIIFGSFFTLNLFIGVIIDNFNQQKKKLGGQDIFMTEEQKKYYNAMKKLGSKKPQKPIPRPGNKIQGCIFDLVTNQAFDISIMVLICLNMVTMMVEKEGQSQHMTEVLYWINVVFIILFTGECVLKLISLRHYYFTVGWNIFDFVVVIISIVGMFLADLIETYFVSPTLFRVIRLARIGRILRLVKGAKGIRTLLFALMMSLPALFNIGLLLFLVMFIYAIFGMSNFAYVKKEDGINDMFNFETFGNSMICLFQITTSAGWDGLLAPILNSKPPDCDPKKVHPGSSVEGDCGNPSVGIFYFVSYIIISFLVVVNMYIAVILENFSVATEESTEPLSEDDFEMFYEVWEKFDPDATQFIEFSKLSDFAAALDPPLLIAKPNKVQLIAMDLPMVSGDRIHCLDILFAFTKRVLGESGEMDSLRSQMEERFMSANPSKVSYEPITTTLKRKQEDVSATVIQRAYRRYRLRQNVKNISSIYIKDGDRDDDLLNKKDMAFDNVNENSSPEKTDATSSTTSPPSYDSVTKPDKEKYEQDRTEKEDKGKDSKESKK
T1 sequence (Q07699 19-218, further chain): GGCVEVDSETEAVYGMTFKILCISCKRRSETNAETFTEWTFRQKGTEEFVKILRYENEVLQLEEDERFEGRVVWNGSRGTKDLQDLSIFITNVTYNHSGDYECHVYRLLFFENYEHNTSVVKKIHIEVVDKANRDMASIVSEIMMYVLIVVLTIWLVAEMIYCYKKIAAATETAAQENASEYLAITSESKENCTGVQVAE

## CC(C)C[C@H](NC(=O)[C@H](CC(=O)O)NC(=O)[C@H](Cc1ccc(O)cc1)NC(=O)[C@H](CCCCN)NC(=O)[C@@H]1CSSC[C@@H]2NC(=O)[C@H](CCCCN)NC(=O)[C@H](CC(=O)O)NC(=O)[C@H](CC(N)=O)NC(=O)[C@H](CO)NC(=O)[C@@H]3CCCN3C(=O)[C@H](CC(N)=O)NC(=O)[C@@H]3CSSC[C@H](NC(=O)[C@H](C(C)C)NC(=O)[C@H](CC(C)C)NC(=O)[C@H](CO)NC(=O)[C@H](CO)NC(=O)[C@H](CO)NC(=O)[C@H](CCCCN)NC(=O)[C@H](CSSC[C@H](NC(=O)[C@H](C)N)C(=O)N[C@@H](CC(C)C)C(=O)NCC(=O)N[C@@H](Cc4ccccc4)C(=O)NCC(=O)N[C@@H](CCC(=O)O)C(=O)N[C@@H](CCCCN)C(=O)N3)NC2=O)C(=O)N[C@@H](CO)C(=O)N[C@@H](CCC(N)=O)C(=O)N[C@@H](CCCCN)C(=O)N[C@@H](Cc2c[nH]cn2)C(=O)N[C@@H](CCCCN)C(=O)N[C@@H](Cc2c[nH]c3ccccc23)C(=O)N1)C(=O)O [Ca2a] (H-ACLGFGEKCNPSNDKCCKSSSLVCSQKHKWCKYDL-OH; disulfide 2-17, 9-24, 16-31 (inferred); N-terminus and C-terminus assumed)
Nav1.7 [1]; control −20.1 ± 1.1 mV, mean ± SEM
  half-activation voltage of Nav1.7: −18.9 ± 1.3 mV
Nav1.7 [1]
  threshold of initial activation voltage, active voltage of peak current, reversal potential of Nav1.7 (I–V): did not change
Nav1.7 [2]; 1, 5 and 10 Hz
  use/frequency dependence of inhibition for Nav1.7: did not show obvious use/frequency dependence
Nav1.7 [2]; 5 Hz
  IC50: 0.244 ± 0.0307 µM
Nav1.7 [2]; 10 Hz
  IC50: 0.185 ± 0.0238 µM
Nav1.7/E818Q
  activity on Nav1.7/E818Q: no activity
